ChEMBL document CHEMBL1201862, “PubChem BioAssay data set” (2004)
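Values below derive from 48-hour exposures of cells grown in 96-well plates, with endpoints linearly interpolated between the two concentrations bracketing the appropriate inhibition level. Abbreviation: GI50, concentration required for 50% inhibition of growth.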 Active and inactive are the calls of the source. No stated cut-off is given here; in the data, active = GI50 up to about 1.1 µM and inactive = higher.

What was measured:
Assay in all cases: NCI-60 cell line screen, 48 h
[1] = test system: NCI-H226
[2] = test system: DMS-114
[3] = test system: KM-20L2
[4] = test system: A498
[5] = test system: UACC-62
[6] = test system: RPMI-8226
[7] = test system: UO-31
[8] = test system: EKVX
[9] = test system: SNB-19
[10] = test system: PC-3
[11] = test system: NCI/ADR-RES
[12] = test system: MCF7
[13] = test system: Hs-578T
[14] = test system: MDA-MB-435
[15] = test system: HCC 2998
[16] = test system: UACC-257
[17] = test system: T47D
[18] = test system: KM12
[19] = test system: RXF 393
[20] = test system: 786-0

Measured: GI50

COc1cccc(C2C(C(=O)O)=C(CO)Oc3cc4c(cc32)OCO4)c1 (centres undefined)
inactive: [1] > 100 µM | [2] > 100 µM | [3] > 100 µM | [4] > 100 µM | [5] > 100 µM | [6] > 100 µM | [7] > 100 µM | [8] > 100 µM | [9] > 100 µM

CCP(=O)(CC)C(Cl)(Cl)C(O)C(C)(C)C (centres undefined)
inactive: [1] > 100 µM | [4] > 100 µM | [10] > 100 µM | [6] > 100 µM | [7] > 100 µM | [11] > 100 µM | [12] > 100 µM | [13] > 100 µM | [14] > 100 µM | [15] > 100 µM | [16] > 100 µM | [9] > 100 µM | [17] > 100 µM

Brc1cccc(Nc2ncnc3sc4c(c23)CCC(Nc2cccc(Br)c2)C4)c1 (centres undefined)
inactive: [18] > 100 µM | [10] > 100 µM | [5] > 100 µM | [7] > 100 µM | [19] > 100 µM | [11] > 100 µM | [12] 83.8 µM | [13] > 100 µM | [14] > 100 µM | [15] > 100 µM | [8] > 100 µM | [16] > 100 µM | [20] > 100 µM | [9] > 100 µM | [17] 6.55 µM

C=CS(=O)(=O)CCN1CC1
inactive: [18] > 10 µM | [10] > 10 µM | [5] > 10 µM | [6] > 10 µM | [11] > 10 µM | [12] > 10 µM | [13] > 10 µM | [14] > 10 µM | [15] > 10 µM | [16] > 10 µM | [20] > 10 µM | [17] > 10 µM

C=COCCCOc1ccccc1
inactive: [18] > 100 µM | [1] > 100 µM | [2] > 100 µM | [3] > 100 µM | [6] > 100 µM | [7] > 100 µM | [19] > 100 µM | [15] > 100 µM | [8] > 100 µM | [9] > 100 µM

CCOc1c(/N=N/c2ccccc2Cl)c(-c2ccccc2)nn1C(=S)S
inactive: [18] 33 µM | [1] 20.8 µM | [10] 48.2 µM | [5] 31.2 µM | [7] 35.6 µM | [19] 39.9 µM | [11] 33.8 µM | [12] 37.8 µM | [13] 22.2 µM | [14] 29 µM | [8] 30.9 µM | [16] 50.6 µM | [20] 37.4 µM | [9] > 100 µM | [17] 22.2 µM
